In PMC10716780, “The multistep oxidation of cholesterol to pregnenolone by human cytochrome P450 11A1 is highly processive” (The Journal of Biological Chemistry, 2023):
“And” between values parts separate entries of the source, which are not always exact repeats. Equal values may be shown once.

Target: T1, human P450 11A1 (Homo sapiens, UniProt P05108)
T1 sequence (P05108 41-521 limits assumed): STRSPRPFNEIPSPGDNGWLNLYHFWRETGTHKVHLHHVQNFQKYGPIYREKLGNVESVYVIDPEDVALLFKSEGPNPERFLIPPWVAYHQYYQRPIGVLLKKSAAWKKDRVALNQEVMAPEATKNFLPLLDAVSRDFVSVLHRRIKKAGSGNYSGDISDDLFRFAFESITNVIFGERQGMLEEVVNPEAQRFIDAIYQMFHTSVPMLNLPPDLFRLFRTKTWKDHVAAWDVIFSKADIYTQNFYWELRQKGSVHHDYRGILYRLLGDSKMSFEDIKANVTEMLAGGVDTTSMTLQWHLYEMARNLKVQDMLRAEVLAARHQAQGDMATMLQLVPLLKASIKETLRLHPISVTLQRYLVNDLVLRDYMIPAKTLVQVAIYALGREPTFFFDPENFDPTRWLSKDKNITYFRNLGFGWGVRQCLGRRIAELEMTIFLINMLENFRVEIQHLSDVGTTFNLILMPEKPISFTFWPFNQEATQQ
T1 sequence (P00257 59-186 partner): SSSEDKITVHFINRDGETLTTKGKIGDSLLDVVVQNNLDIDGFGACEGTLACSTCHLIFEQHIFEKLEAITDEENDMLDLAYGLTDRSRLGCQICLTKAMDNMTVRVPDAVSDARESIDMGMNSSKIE
Assay: Fluorescence titration of Alexa 488-Adx with P450 11A1 ± cholesterol
Assay type: binding
Set-up: M A S T R S P R P F N E I P S P G D N; Met-Ala (N-terminal start residues in place of the transit peptide and Ile40) (N); made in house; host or cells: E. coli (P450 11A1 in C41(DE3); Adx and AdR in E. coli)
Protocol: Because Adx has been reported to stimulate the binding of P450 11A1 to its substrates ([12], [44]), we examined whether the binding of detergent-free P450 11A1 to Adx is enhanced by cholesterol, utilizing our fluorescently-labeled Adx construct (Alexa 488-Adx) ([45]). A 1:1 M complex of P450 11A1 and cholesterol was gradually titrated into a solution containing Alexa 488-Adx (50 nM), and the quenching of Adx fluorescence was monitored over the course of the reaction.
Figure 7 Effect of cholesterol on P450 11A1 binding to Adx.A, titration of P450 11A1 (0–400 nM) into Alexa 488-Adx (50 nM) gradually quenched the fluorophore and yielded a decrease in fluorescence output (between 500 and 600 nm). Spectra were collected after each addition of P450. B, normalized fluorescence (F/F0) of titrations of P450 11A1 with (▪, red) and without (•, black) cholesterol (equimolar). A 1:1 M complex of P450 and cholesterol was used as titrant, where indicated. […]
A previously described Alexa Fluor 488-labeled Adx construct and experimental protocol were used ([45]) to perform the fluorescence titration of P450 11A1 with Adx. […] P450 11A1 was gradually titrated (0–0.4 μM) into the cuvette (to a maximum of 2% (v/v)), and spectra were recorded using an OLIS DM-45 spectrofluorometer (1.24 mm slit width) with fluorophore excitation at 493 nm and scanning emission spectra from 500 to 600 nm. […]

CC(C)CCC[C@@H](C)[C@H]1CC[C@H]2[C@@H]3CC=C4C[C@@H](O)CC[C@]4(C)[C@H]3CC[C@]12C [Cholesterol]
stimulation of binding of P450 11A1 to Adx (equimolar cholesterol): ~5 fold and ~4.5 fold
change in Gibbs free energy of Adx binding (from the 4.5-fold change in Kd): < 1 kcal/mol
